Laboratory results reported in paper PMC12606247, “Bidirectional communication between nucleotide and substrate binding sites in a type IV multidrug ABC transporter” (Nature Communications, 2025).

Tests used:
BmrA NBD [1] = molecular target: BmrA NBD (Bacillus subtilis, UniProt O06967, R414A); experiment: biochemical
BmrA NBD [2] = molecular target: BmrA NBD (Bacillus subtilis, UniProt O06967, R389M); experiment: biochemical
MsbA NBD = MsbA NBD (Escherichia coli, UniProt P60752); experiment: 1H, […]-HSQC NMR chemical shift perturbation; type: binding; conditions: 50 mM BisTris pH 7, 50 mM NaCl, 298 K
Sequence of MsbA NBD (P60752 323-582): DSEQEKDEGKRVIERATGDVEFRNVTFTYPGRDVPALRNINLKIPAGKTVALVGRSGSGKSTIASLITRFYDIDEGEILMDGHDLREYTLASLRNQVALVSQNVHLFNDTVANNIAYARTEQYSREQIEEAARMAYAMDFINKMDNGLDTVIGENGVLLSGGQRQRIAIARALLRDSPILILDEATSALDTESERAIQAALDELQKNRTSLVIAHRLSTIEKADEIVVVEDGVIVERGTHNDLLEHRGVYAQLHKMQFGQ

BmrA NBD [3] = molecular target: BmrA NBD (Bacillus subtilis, UniProt O06967, R414K); experiment: biochemical
Sequence of BmrA NBD (Bacillus subtilis, UniProt O06967, R414K) (O06967 331-589 R414K): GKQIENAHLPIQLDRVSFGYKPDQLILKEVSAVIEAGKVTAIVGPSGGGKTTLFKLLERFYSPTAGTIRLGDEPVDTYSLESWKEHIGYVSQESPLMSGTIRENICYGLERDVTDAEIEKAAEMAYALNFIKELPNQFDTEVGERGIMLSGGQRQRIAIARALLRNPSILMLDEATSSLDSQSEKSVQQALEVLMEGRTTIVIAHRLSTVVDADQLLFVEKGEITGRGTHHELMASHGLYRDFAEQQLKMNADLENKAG

BmrA NBD [4] = molecular target: BmrA NBD (Bacillus subtilis, UniProt O06967, W413F); experiment: biochemical
Sequence of BmrA NBD (Bacillus subtilis, UniProt O06967, W413F) (O06967 331-589 W413F): as the sequence (O06967 331-589 R414K) above, with W83F, K84R counted along it

BmrA NBD [5] = molecular target: T1, BmrA NBD (Bacillus subtilis, UniProt O06967); experiment: dissociation constant (method not stated in main text); type: binding; conditions: read-out: KD, ADP
T1 sequence (O06967 331-589): as the sequence (O06967 331-589 R414K) above, with K84R counted along it

BmrA NBD [6] = molecular target: BmrA NBD (Bacillus subtilis, UniProt O06967, R389K); experiment: biochemical
Sequence of BmrA NBD (Bacillus subtilis, UniProt O06967, R389K) (O06967 331-589 R389K): as the sequence (O06967 331-589 R414K) above, with R59K, K84R counted along it

LmrA NBD = LmrA NBD (Lactococcus cremoris, UniProt P97046); experiment: 1H, […]-HSQC NMR chemical shift perturbation; type: binding; conditions: 50 mM BisTris pH 7, 50 mM NaCl, 298 K
Sequence of LmrA NBD (P97046 330-590): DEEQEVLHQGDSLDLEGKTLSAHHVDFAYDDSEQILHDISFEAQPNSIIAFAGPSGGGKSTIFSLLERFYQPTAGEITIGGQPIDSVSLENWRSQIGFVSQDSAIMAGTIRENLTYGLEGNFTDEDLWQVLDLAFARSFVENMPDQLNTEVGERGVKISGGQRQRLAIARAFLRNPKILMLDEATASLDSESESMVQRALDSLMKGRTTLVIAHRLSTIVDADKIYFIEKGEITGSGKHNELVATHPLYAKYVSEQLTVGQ

BmrA NBD [7] = molecular target: BmrA NBD (Bacillus subtilis, UniProt O06967, K380A); experiment: biochemical
Sequence of BmrA NBD (Bacillus subtilis, UniProt O06967, K380A) (O06967 331-589 K380A): as the sequence (O06967 331-589 R414K) above, with K50A, K84R counted along it

BmrA full-length [8] = molecular target: T2, BmrA full-length (Bacillus subtilis, UniProt O06967); experiment: ATPase assay coupled to NADH oxidation (also […] NMR); type: biochemical; conditions: 10 mM MgCl2, pH 8, 37 °C; detergent, nanodiscs or liposomes
T2 construct: full-length half transporter, C-terminal His6 tag, E. coli C41(DE3); homodimer in DDM/cholate, MSP1E3D1 nanodiscs or inside-out vesicles
T2 sequence (O06967 whole entry): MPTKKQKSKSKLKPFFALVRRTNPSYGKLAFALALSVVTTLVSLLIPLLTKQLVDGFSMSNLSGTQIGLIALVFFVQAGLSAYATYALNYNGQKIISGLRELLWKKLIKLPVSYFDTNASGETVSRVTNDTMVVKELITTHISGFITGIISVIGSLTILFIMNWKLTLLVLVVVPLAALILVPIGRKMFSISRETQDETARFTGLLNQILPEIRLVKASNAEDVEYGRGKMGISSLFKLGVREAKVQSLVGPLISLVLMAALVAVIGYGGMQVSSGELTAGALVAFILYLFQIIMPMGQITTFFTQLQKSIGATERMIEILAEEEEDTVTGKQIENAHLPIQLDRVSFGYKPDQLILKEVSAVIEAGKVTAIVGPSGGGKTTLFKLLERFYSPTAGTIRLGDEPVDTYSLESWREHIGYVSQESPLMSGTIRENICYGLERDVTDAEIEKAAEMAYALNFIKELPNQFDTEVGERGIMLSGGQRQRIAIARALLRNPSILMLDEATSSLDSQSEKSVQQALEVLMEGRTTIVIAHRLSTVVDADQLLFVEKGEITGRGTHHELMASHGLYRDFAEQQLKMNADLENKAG

BmrA NBD [9] = molecular target: T1, BmrA NBD; experiment: 1H, […]-HSQC NMR chemical shift perturbation; type: binding; conditions: 10 mM ATP, 50 mM BisTris pH 7, 50 mM NaCl, 298 K
BmrA full-length [10] = molecular target: T2, BmrA full-length; experiment: HDX-MS (also fluorescence transport assay in inside-out vesicles); type: binding; conditions: 100 μM doxorubicin, nanodiscs, pD 8.0, 20 °C
BmrA full-length [11] = molecular target: T2, BmrA full-length; experiment: […] NMR of 5-fluorotryptophan-labelled protein (W413 line broadening); type: binding; conditions: 15 mM reserpine, MSP1E3D1 nanodiscs, E. coli polar lipids, 298 K

Sequence of BmrA NBD (Bacillus subtilis, UniProt O06967, R414A) (O06967 331-589 R414A): as the sequence (O06967 331-589 R414K) above, with K84A counted along it
Sequence of BmrA NBD (Bacillus subtilis, UniProt O06967, R389M) (O06967 331-589 R389M): as the sequence (O06967 331-589 R414K) above, with R59M, K84R counted along it

Nc1ncnc2c1ncn2[C@@H]1O[C@H](COP(=O)(O)OP(=O)(O)O)[C@@H](O)[C@H]1O [ADP]
Kd (BmrA NBD [1]): 575 ± 43.5 µM
Kd (BmrA NBD [2]): 2890 ± 1460 µM
1H,15N-HSQC NMR chemical shift perturbation (MsbA NBD; 10 mM ADP): (BmrA W413, LmrA W421, MsbA L415) responded to the addition of ATP or ADP
Kd (BmrA NBD [3]): 266 ± 97 µM
Kd (BmrA NBD [4]): 221 ± 54 µM
Kd (BmrA NBD [5]): 214 ± 43 µM
Kd (BmrA NBD [6]): 221 ± 105 µM
1H,15N-HSQC NMR chemical shift perturbation (LmrA NBD; 10 mM ADP): (BmrA W413, LmrA W421, MsbA L415) responded to the addition of ATP or ADP
Kd (BmrA NBD [7]): 14400 ± 3700 µM

Nc1ncnc2c1ncn2[C@@H]1O[C@H](COP(=O)(O)OP(=O)(O)OP(=O)(O)O)[C@@H](O)[C@H]1O [ATP]
ATPase assay coupled to NADH oxidation (also 19F NMR) (BmrA full-length [8]): ATPase activity of purified BmrA full-length WT, K380A and hinge mutant constructs was determined
1H,15N-HSQC NMR chemical shift perturbation (MsbA NBD; 10 mM ATP): (BmrA W413, LmrA W421, MsbA L415) responded to the addition of ATP or ADP
1H,15N-HSQC NMR chemical shift perturbation (BmrA NBD [9]): (BmrA W413, LmrA W421, MsbA L415) responded to the addition of ATP or ADP
1H,15N-HSQC NMR chemical shift perturbation (LmrA NBD; 10 mM ATP): (BmrA W413, LmrA W421, MsbA L415) responded to the addition of ATP or ADP

COc1cccc2c1C(=O)c1c(O)c3c(c(O)c1C2=O)C[C@@](O)(C(=O)CO)C[C@@H]3O[C@H]1C[C@H](N)[C@H](O)[C@H](C)O1 [doxorubicin]
HDX-MS (also fluorescence transport assay in inside-out vesicles) (BmrA full-length [10]): in the absence and presence of doxorubicin showed decreased exchange in the TMD

COC(=O)[C@H]1[C@H]2C[C@@H]3c4[nH]c5cc(OC)ccc5c4CCN3C[C@H]2C[C@@H](OC(=O)c2cc(OC)c(OC)c(OC)c2)[C@@H]1OC [reserpine]
19F NMR of 5-fluorotryptophan-labelled protein (W413 line broadening) (BmrA full-length [11]): Addition of ATP or the substrate reserpine resulted in changes in chemical shift and linewidths
